Data from ChEMBL document CHEMBL2007661, “Compounds: GSK PKIS; Assays: UNC Frye lab” (2012).
Several values for one entry are separate records, joined by “and”; a condition that tells them apart may be missing. Equal values may be shown once.

Tests used:
[1] = target: T1, Inhibitor of nuclear factor kappa-B kinase subunit beta (Homo sapiens) (UniProt O14920); details: at 1 µM
T1 sequence (whole entry): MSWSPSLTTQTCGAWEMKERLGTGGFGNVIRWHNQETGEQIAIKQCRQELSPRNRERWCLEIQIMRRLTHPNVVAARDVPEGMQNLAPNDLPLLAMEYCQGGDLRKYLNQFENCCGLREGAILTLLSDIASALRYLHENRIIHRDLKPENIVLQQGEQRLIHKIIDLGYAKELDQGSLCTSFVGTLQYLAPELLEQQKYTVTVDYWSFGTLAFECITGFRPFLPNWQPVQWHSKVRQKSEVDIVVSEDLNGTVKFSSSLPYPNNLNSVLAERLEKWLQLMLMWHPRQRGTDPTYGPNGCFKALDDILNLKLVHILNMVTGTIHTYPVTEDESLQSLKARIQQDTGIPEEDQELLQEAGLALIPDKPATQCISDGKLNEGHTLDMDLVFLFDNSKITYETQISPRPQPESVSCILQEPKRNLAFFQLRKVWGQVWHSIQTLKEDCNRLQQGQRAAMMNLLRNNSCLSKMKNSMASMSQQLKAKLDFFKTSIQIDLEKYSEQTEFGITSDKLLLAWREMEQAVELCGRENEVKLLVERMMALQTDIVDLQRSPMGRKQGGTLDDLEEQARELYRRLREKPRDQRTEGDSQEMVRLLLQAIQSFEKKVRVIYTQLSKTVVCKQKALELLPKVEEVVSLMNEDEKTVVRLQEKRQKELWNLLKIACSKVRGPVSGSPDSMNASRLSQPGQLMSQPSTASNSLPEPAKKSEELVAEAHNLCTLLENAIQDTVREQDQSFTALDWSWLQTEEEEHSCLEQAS

[2] = target: T2, Tyrosine-protein kinase Mer (Homo sapiens) (UniProt Q12866); details: at 10 µM
T2 sequence (whole entry): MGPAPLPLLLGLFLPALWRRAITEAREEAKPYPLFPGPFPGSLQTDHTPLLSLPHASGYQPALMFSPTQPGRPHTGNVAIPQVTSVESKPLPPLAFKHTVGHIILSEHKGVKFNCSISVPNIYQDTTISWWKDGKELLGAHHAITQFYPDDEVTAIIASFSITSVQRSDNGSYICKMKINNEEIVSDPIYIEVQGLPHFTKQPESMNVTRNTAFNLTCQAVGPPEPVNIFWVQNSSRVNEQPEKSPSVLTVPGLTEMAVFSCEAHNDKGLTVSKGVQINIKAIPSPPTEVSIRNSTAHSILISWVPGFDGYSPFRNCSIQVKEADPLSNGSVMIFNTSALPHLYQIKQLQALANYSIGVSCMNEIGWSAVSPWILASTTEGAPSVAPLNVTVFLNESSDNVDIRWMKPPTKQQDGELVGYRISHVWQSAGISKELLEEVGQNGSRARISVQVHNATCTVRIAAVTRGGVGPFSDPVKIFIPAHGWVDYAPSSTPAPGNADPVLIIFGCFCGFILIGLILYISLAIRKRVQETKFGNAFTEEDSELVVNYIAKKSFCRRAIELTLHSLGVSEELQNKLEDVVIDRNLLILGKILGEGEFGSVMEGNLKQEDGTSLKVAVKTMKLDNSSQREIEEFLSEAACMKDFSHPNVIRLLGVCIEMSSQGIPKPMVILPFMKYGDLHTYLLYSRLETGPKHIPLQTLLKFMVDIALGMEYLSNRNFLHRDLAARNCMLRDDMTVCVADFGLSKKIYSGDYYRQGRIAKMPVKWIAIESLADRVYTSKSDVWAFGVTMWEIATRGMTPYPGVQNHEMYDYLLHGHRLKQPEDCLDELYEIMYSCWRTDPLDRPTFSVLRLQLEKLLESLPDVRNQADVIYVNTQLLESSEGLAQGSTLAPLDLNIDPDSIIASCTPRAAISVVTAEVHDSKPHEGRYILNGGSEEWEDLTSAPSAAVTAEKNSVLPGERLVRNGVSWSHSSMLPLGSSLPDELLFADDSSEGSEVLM

[3] = target: T3, Inhibitor of nuclear factor kappa-B kinase subunit alpha (Homo sapiens) (UniProt O15111); details: at 1 µM
T3 sequence (whole entry): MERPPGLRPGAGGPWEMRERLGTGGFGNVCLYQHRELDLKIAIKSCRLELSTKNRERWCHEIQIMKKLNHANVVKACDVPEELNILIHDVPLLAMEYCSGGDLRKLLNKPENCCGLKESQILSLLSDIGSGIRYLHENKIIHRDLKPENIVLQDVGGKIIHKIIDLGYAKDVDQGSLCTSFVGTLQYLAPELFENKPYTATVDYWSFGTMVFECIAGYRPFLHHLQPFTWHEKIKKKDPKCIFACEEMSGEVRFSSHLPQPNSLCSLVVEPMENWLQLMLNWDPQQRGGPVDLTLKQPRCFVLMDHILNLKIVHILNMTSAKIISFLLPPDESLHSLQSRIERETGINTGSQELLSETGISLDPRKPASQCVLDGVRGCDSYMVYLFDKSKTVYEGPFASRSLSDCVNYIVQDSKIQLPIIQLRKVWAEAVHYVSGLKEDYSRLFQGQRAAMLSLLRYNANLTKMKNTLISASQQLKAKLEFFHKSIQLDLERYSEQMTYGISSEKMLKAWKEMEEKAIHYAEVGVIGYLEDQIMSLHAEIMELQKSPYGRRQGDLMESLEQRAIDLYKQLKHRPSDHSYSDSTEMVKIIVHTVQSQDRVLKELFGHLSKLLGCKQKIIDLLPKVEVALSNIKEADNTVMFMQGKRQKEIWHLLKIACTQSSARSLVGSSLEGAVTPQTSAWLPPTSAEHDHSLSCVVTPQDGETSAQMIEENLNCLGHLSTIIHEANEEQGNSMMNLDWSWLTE

Structure (SMILES) | inhibition [1] | inhibition [2] | inhibition [3]
O=C(Nc1n[nH]c2nnc(-c3cccnc3)cc12)C1CC1 | 2% | -7% | 5% and 7%
CCn1c(-c2nonc2N)nc2c(C#CC(C)(C)O)nc(OCCNC)cc21 | -2% | -6% | 6% and 5%
Cc1cccc(-c2n[nH]cc2-c2ccc3ncccc3n2)n1 | -4% and -1% | -6% | 2% and 4%
c1ccc(-c2nc3n(c2-c2ccc4c(c2)OCO4)CCC3)nc1 | -5% and -3% | -1% | 2% and 0%
COC(=O)c1ccc2c(c1)C(=Cc1cc(Br)c(O)c(Br)c1)C(=O)N2 | 0% and -2% | 5% | -7%
Cc1nn(C)c2cc(N(C)c3ccnc(Nc4cccc(S(N)(=O)=O)c4)n3)ccc12 | -2% and 4% | -8% | -8% and 0%
O=C(NCC1CC1)c1ccc(-c2cccc(C(=O)NC3CC3)c2)cc1 | 1% and 4% | 0% | -4% and -5%
CN1CCC(C(=O)Nc2n[nH]c3nnc(-c4ccccc4)cc23)CC1 | -4% | 1% | 3%
Nc1nc(-c2ccccn2)c(-c2ccc3ncccc3n2)s1 | -4% and -7% | -5% | 5%
NCc1ccc(-n2c(-c3nonc3N)nc3cnccc32)cc1 | -6% and -2% | -3% | 40% and 38%
CNC(=O)c1cncc(/C=C/c2ccccc2C)c1 | -1% and -3% | -5% | 4% and -3%
CCCN1CCC(c2ccc(Nc3nc(Nc4cc(F)ccc4C(N)=O)c4cc[nH]c4n3)c(OC)c2)CC1 | -2% and 4% | 5% | 3% and 0%
c1ccc(Nc2ncc(-c3ccccc3)o2)cc1 | -4% | 0% | -1% and 0%
CNC(=O)c1ncccc1Nc1nc(Nc2cc3c(cc2OC)CCCN3C(=O)CN(C)C)nc2[nH]ccc12 | -5% and -3% | 77% | 6% and 5%
COc1cccc(-n2ncc3c(N/N=C/c4cccc(F)c4)ncnc32)c1 | -7% and -5% | -3% | 1% and 0%
Cc1nc(-c2ccccc2)n2nc(NCCCN3CCOCC3)ncc12 | -2% and 2% | 39% | 1%
COc1cc2c(cc1Nc1nc(N3CCc4ccccc43)c3cc[nH]c3n1)N(C(=O)CN(C)C)CC2 | -6% | 3% | 3%
CCn1c(-c2nonc2N)nc2ccncc21 | -4% and -5% | 32% | 4% and 1%
CC(C)COC(=O)c1ccc2c(c1)/C(=C/Nc1ccc(S(N)(=O)=O)cc1)C(=O)N2 | 0% and -1% | 0% | -4% and -9%
COc1ccc2[nH]c3c4[nH]c5ccc(OC)cc5c4c4c(c3c2c1)C(=O)NC4=O | -1% and -5% | 5% | 12% and 13%

Results, then the molecule that gave them:

inhibition [1] | inhibition [2] | inhibition [3] | Structure (SMILES)
-1% and -4% | 5% | 2% and 1% | Cc1ccc2c(-c3ccnc(Nc4ccccc4)n3)c(-c3ccc(F)cc3)nn2n1
-1% and 0% | -8% | 0% | NS(=O)(=O)c1ccc(N/N=C2\C(=O)Nc3ccc(C(=O)NCc4ccncc4)cc32)cc1
0% and 1% | 27% | -1% | O=C(Nc1ccc(Oc2ccc3[nH]c(NC(=O)c4ccco4)nc3c2)cc1)Nc1cc(C(F)(F)F)ccc1F
-1% and -4% | -2% | -1% and -3% | CS(=O)(=O)Nc1ccc(-c2cc(-c3ccccc3)cc(C(N)=O)c2N)cc1
-1% and 18% | 52% | 2% and 3% | COc1cc(C)c(NC(=O)CN(C)C)cc1Nc1nc(Nc2cccc(F)c2C(N)=O)c2cc[nH]c2n1
-3% and -1% | -10% | 1% and 0% | COc1cc2ncn(-c3cc(OCc4ccccc4C(F)(F)F)c(C(=O)N(C)C)s3)c2cc1OC
2% | 3% | 6% and -8% | CC1=C(C(=O)Nc2ccc3[nH]ncc3c2)C(c2ccc(Cl)c(Cl)c2)CC(=O)N1 (configuration not stated)
2% and -2% | 101% | 1% | CN(c1ccc(NC(=O)NCCN2CCOCC2)cc1)c1ccnc(Nc2ccc(CS(C)(=O)=O)cc2)n1
0% and -2% | 7% | -1% and 3% | Cc1nnc(-c2ccc(C)c(-c3ccc(C(=O)Nc4cccc(C#N)c4)cc3)c2)o1
-4% and -5% | 6% | 4% and 2% | COc1cc(Nc2ncc3c(C)nc(-c4cccc(C(F)(F)F)c4)n3n2)cc(OC)c1OC
5% and 2% | 1% | -3% | NC(=O)c1ccc(-c2nc(-c3ccccn3)c(-c3ccc4c(c3)OCO4)[nH]2)cc1
-2% and 2% | 78% | 11% | O=C(Nc1ccc(Oc2ccc3[nH]c(NC(=O)c4ccccc4)nc3c2)cc1)Nc1cc(C(F)(F)F)ccc1F
-7% and -9% | 43% | 3% | Nc1ncnc2occ(-c3ccc(NC(=O)Nc4cccc(C(F)(F)F)c4)cc3)c12
-7% and -6% | -6% | 3% and 2% | CCc1ccc(Oc2nccc(-c3c(-c4ccc(F)cc4)ncn3C3CCNCC3)n2)cc1
-6% | 47% | 4% and 3% | CS(=O)(=O)Nc1cccc(-c2ccc3c(NC(=O)C4CC4)n[nH]c3c2)c1
1% | 89% | 8% and 2% | CS(=O)(=O)CCNCc1ccc(-c2ccc3ncnc(Nc4ccc(OCc5ccccc5)c(Cl)c4)c3c2)o1
0% and -2% | 72% | 4% and 12% | O=S(=O)(CCNCc1ccc(-c2ccc3ncnc(Nc4ccc(OCc5cccc(F)c5)c(Cl)c4)c3c2)o1)c1ccccc1
-5% and -3% | -2% | 1% and -1% | CS(=O)(=O)CCNCc1ccc(-c2ccc3ncnc(Nc4ccc(OCc5ccccc5)c(C(F)(F)F)c4)c3c2)o1
-1% and -5% | -3% | 2% and -1% | CCCN(CCS(C)(=O)=O)Cc1ccc(-c2ccc3ncnc(Nc4ccc(OCc5cccc(F)c5)c(Cl)c4)c3c2)o1
